Data from ChEMBL document CHEMBL1148250, “MexAB-OprM specific efflux pump inhibitors in Pseudomonas aeruginosa. Part 4: Addressing the problem of poor stability due to photoisomerization of an acrylic acid moiety” (2004).

How the values were obtained:
Type in all cases: functional
Pseudomonas aeruginosa [1] = assay: Minimum concentration (using PAM1723, a strain of Pseudomonas aeruginosa) required to reduce antibacterial activity by 4 folds for Levofloxacin
Pseudomonas aeruginosa [2] = assay: Minimum concentration (using PAM1723, a strain of Pseudomonas aeruginosa) required to reduce antibacterial activity by 8 folds for Levofloxacin
Pseudomonas aeruginosa [3] = assay: Minimum concentration (using PAM1723, a strain of Pseudomonas aeruginosa) required to reduce antibacterial activity by 8 folds for aztreonam in the presence 0.125% of human serum albumin
Pseudomonas aeruginosa [4] = assay: Minimum concentration (using PAM1723, a strain of Pseudomonas aeruginosa) required to reduce antibacterial activity by 8 folds for aztreonam in the absence of human serum albumin

Row | Structure (SMILES) | MPC4 (Pseudomonas aeruginosa [1]) | MPC8 (Pseudomonas aeruginosa [2]) | MPC8 (Pseudomonas aeruginosa [3]) | MPC8 (Pseudomonas aeruginosa [4])
1 | CC(C)(C)c1csc(NC(=O)c2ccn3c(=O)c(/C=C/c4nnn[nH]4)c(N4CCC[C@@H](OC(N)=O)C4)nc3c2)n1 | <0.25 µg/mL | 0.5 µg/mL | 2 µg/mL | <0.25 µg/mL
2 | CC(C)(C)c1csc(NC(=O)c2ccn3c(=O)c(/C=C/C(=O)O)c(N4CCC[C@@H](OC(N)=O)C4)nc3c2)n1 | <0.25 µg/mL | 1 µg/mL | 1 µg/mL | 0.5 µg/mL
3 | CC(C)c1csc(CCc2ccn3c(=O)c(/C=C/C(=O)O)c(N4CCCC(O)C4)nc3c2)n1 (stereo unspecified) | 0.5 µg/mL | 8 µg/mL | 16 µg/mL | 8 µg/mL
4 | CC(C)(C)c1csc(NC(=O)c2ccn3c(=O)c(/C=C/c4nn[nH]n4)c(N4CCC[C@H](OC(N)=O)C4)nc3c2)n1 | 0.5 µg/mL | 2 µg/mL | 4 µg/mL | 1 µg/mL
